From PMC10609499, “In Vitro Assessment of the Antidiabetic and Anti-Inflammatory Potential of Artemisia absinthium, Artemisia vulgaris and Trigonella foenum-graecum Extracts Processed Using Membrane Technologies” (Molecules, 2023) come the findings set out here.

Like-named read-outs stand apart in the source and are kept apart here.

Experiment [1] can be described thus: Reducing power activity (iron (III) to iron (II) reduction). The conditions noted are these: absorbance at 700 nm; mean ± SD of triplicate. On the procedure:
• ○ Reducing Power Activity (Iron (III) to iron (II) reduction) Reducing power was determined according to a previously described procedure. The absorbance was measured spectrophotometrically at 700 nm and calculation was carried out using the following formula:Reducing power (%) = [(AA − AB)/AA] × 100(3) where AA = sample absorbance; AB = control absorbance.

The nature of experiment [2]: DPPH radical scavenging activity. The conditions noted are these: absorbance at 517 nm after 10 min; mean ± SD of triplicate. On the technique in general: The DPPH test is a chemical assay of radical scavenging.
Description: The scavenging activity on the DPPH radical of samples was determined by measuring the decrease in the DPPH maximum absorbency at 517 nm after 10 min [64] and was calculated as follows:radical scavenging activity (%) = [(AB − AA)/AB] × 100(2) where: AB = control absorbance and AA = sample absorbance.
In experiment [3] the target is T1, α-amylase from hog pancreas (EC 3.2.1.1) (Sus scrofa, UniProt P00690).
T1 construct: from tissue; host or cells: hog pancreas
T1 sequence (P00690 16-511): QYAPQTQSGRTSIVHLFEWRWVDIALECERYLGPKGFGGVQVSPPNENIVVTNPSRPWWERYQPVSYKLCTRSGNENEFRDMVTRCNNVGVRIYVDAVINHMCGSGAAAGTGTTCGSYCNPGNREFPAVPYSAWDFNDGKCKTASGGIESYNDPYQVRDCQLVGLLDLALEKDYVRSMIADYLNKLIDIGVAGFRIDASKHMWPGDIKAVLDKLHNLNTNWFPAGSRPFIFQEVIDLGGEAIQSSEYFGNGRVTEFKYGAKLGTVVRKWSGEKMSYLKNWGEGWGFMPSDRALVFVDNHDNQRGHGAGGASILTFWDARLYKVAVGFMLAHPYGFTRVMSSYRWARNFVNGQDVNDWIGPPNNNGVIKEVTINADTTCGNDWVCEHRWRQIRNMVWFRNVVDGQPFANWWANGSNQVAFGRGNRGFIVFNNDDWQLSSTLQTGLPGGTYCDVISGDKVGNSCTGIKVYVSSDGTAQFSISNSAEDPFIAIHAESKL
Description: α-Amylase inhibition assay. In kind it is biochemical. As to conditions: hog pancreas enzyme, starch substrate, 37 °C, DNS, pH 6.9; mean ± SD of triplicate. On the procedure: The α-amylase inhibition assay was performed according to the Ranilla method, which was slightly modified. Thus, 100 μL of extract was mixed with 250 μL of α-amylase from hog pancreas (EC 3.2.1.1) (0.5 mg/mL in 0.02 M sodium phosphate buffer, pH 6.9 with 0.006 M NaCl) and was incubated at 37 °C for 20 min; then, 250 μL of starch solution (1% in sodium phosphate buffer) was added, and the mixture was incubated at 37 °C for 30 min; then, 500 μL of dinitrosalicylic acid (DNS) was added and the mixture was boiled for 5 min. Finally, 5 mL of distilled water was added to the reaction mixture. […] The calculation of the results was carried out using the following formula:(4) % Amylase inhibition=ΔAcontrol−ΔAsample/ΔAcontrol × 100
(§1) The IC50 values were calculated via the linear regression analysis. Significant statistical differences were considered at p < 0.05.

Experiment [4] deals with T2, lipoxygenase (EC 1.13.11.12) (Glycine max, UniProt P08170).
T2 sequence (P08170 1-839): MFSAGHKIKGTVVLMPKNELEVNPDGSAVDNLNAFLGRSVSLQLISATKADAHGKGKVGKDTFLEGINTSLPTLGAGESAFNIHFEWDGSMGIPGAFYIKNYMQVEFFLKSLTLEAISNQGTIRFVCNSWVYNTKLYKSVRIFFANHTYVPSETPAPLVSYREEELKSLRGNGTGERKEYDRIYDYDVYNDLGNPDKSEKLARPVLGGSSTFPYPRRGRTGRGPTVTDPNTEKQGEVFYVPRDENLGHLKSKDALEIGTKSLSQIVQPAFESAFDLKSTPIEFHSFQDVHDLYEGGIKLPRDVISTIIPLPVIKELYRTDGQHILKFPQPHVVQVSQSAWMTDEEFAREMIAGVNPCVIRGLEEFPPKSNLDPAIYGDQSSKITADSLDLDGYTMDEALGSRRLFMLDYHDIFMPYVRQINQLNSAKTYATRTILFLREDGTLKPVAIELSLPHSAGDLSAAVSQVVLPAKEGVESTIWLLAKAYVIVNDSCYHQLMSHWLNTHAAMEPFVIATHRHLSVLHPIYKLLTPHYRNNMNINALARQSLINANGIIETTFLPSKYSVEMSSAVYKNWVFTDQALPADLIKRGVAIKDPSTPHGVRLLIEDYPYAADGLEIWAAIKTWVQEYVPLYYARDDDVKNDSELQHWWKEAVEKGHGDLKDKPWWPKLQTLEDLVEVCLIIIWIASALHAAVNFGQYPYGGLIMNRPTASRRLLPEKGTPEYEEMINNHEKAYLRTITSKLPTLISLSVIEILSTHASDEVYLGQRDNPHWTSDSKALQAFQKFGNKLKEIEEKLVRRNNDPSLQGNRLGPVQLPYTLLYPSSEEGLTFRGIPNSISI
Description: Lipoxygenase inhibition assay. In kind it is biochemical. The conditions noted are these: 234 nm, mean ± SD of triplicate. As to the method: as §1

For experiment [5], the target named is α-glucosidase from Saccharomyces cerevisiae (EC 3.2.1.20) (Saccharomyces cerevisiae, UniProt P53341). Description: α-Glucosidase inhibition assay. In kind it is biochemical. As to the method: as §1
Where [6] appears, read: linoleic acid substrate, read-out: Inhibition of LOX IC50 (converted).

Sequence of α-glucosidase from Saccharomyces cerevisiae (EC 3.2.1.20) (P53341 whole entry): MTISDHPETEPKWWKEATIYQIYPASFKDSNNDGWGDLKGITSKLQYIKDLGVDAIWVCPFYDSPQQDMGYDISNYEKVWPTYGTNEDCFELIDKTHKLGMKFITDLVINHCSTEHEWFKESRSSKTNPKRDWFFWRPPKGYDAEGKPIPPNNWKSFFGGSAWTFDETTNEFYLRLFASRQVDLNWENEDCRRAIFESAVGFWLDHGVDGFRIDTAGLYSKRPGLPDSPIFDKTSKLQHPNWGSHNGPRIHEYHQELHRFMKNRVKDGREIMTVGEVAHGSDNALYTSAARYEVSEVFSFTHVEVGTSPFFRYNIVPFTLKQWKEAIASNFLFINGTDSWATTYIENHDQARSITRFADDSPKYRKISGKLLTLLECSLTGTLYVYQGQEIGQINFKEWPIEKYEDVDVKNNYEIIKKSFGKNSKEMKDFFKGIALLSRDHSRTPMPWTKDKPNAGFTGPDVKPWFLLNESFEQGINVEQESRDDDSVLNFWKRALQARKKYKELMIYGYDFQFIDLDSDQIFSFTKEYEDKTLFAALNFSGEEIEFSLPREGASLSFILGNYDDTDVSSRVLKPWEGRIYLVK

On to `O=C1O[C@H]([C@@H](O)CO)C(O)=C1O` [Ascorbic acid], for which, in experiment [1], the “Reducing Power %” value was found to be 34.5 ± 1.3%. Also, the “% DPPH Inhibition” value in experiment [2] is listed as 96.9 ± 3.6%.
Broadly, the IC50 is the concentration at which inhibition is half-maximal. As for `O=C(/C=C/c1ccc(O)c(O)c1)O[C@@H]1C[C@](O)(C(=O)O)C[C@@H](O)[C@H]1O` [Chlorogenic acid], the results for the IC50 in experiment [3] and in experiment [4] (setting [6]) were 5.36 µM and 73.7 µM, respectively.
For the compound `O=C(/C=C/c1ccc(O)c(O)c1)O[C@H](Cc1ccc(O)c(O)c1)C(=O)O` [Rosmarinic acid], the IC50 is 0.5 µM in experiment [5]; 2.5 µM in experiment [3]; 84.1 µM in experiment [4] (Inhibition of LOX IC50, linoleic acid substrate).
In the case of `C[C@@H]1O[C@@H](OC[C@H]2O[C@@H](Oc3c(-c4ccc(O)c(O)c4)oc4cc(O)cc(O)c4c3=O)[C@H](O)[C@@H](O)[C@@H]2O)[C@H](O)[C@H](O)[C@H]1O` [Rutin], in experiment [4] (setting [6]), the IC50 was 36.6 µM.
